pIC50: −log10 of the molar value. A value given as a limit tells only on which side of the number the result lay.

As a reminder, the pIC50 is the IC50 on a negative log10 scale, so that one unit is a factor of ten.

Sequence of C5aR (P21730 whole entry): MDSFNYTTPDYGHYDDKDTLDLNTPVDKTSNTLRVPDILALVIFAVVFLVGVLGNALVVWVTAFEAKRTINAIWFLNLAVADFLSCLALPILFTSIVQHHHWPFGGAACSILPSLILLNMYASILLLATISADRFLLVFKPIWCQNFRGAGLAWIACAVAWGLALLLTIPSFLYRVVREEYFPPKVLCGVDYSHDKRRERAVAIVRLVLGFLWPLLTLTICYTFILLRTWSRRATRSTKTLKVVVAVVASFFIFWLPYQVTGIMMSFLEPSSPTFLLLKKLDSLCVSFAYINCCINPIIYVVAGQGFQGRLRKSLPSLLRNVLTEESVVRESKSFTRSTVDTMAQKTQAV

In this test the target is C5aR (Homo sapiens (Human), UniProt P21730). Kind of test: Chemotaxis assay using U937 cells (C5aR mediated migration). It counts as cell-based. The settings on record: read-out: Mig IC50. The method, then:
U937 cells are a monocytic cell line which express C5aR, and are available from ATCC (VA). These cells were cultured as a suspension in RPMI-1640 medium supplemented with 2 mM L-glutamine, 1.5 g/L sodium bicarbonate, 4.5 g/L glucose, 10 mM HEPES, 1 mM sodium pyruvate, and 10% FBS. Cells were grown under 5% CO2/95% air, 100% humidity at 37° C. and subcultured twice weekly at 1:6 (cells were cultured at a density range of 1×10^5 to 2×10^6 cells/mL) and harvested at 1×10^6 cells/mL. Prior to assay, cells are treated overnight with 0.5 mM of cyclic AMP (Sigma, OH) and washed once prior to use. cAMP treated U937 cells can be used in C5aR ligand binding and functional assays.
Optionally, compounds may be further assayed for their ability to inhibit chemotaxis in cells. Chemotaxis assays are performed using 5 μm pore polycarbonate, polyvinylpyrrolidone-coated filters in 96-well chemotaxis chambers (Neuroprobe; Gaithersburg, Md.) using chemotaxis buffer (Hank's balanced salt solution (HBSS) and 1% FBS). C5aR ligands (i.e., C5a, R&D Systems; Minneapolis, Minn.) are use to evaluate compound mediated inhibition of C5aR mediated migration. Other chemokines (i.e., SDF-1α; R&D Systems; Minneapolis, Minn.) are used as specificity controls. The lower chamber is loaded with 29 μl of chemokine (i.e., 0.03 nM C5a) and varying amounts of compound; the top chamber contains 100,000 U937 or neutrophil cells in 20 μl. The chambers are incubated 1.5 hours at 37° C., and the number of cells in the lower chamber quantified either by direct cell counts in five high powered fields per well or by the CyQuant assay (Molecular Probes), a fluorescent dye method that measures nucleic acid content and microscopic observation.
The compounds in Table 1, below, were prepared using the methods described above. Characterization data is provided for each compound listed. Activity is provided as follows for the chemotaxis assay using U937 cells as described herein (Example 12): +, 500 nM<IC50; ++, 50 nM<IC50≤500 nM; +++, 5 nM<IC50≤50 nM; and ++++, IC50≤5 nM.
Consider `Cc1ccc(C(C)(C)C)cc1N1CCc2nn(-c3c(C)cccc3CCC(C)C)c(-c3ccc(NC(N)=O)cc3)c2C1` [Example 1.387], for which the pIC50 is 7.30 to 8.30.
Turning to `CCc1cccc(CC)c1-n1nc2c(c1-c1ccc(NC(N)=O)c(F)c1)CN(C(C)CC(C)C)CC2` (stereo not drawn) [Example 1.215], the pIC50 was 7.30 to 8.30.
As for `Cc1cc(NC(N)=O)ccc1-c1c2c(nn1-c1c(C)cccc1OCC(C)C)CCN(c1ncc(C(F)(F)F)cc1F)C2` [Example 1.268], the figure is 7.30 to 8.30.
The result for `Cc1cccc(CCC(C)C)c1-n1nc2c(c1-c1ccc(NC(N)=O)cc1)CN(c1ncc(C(F)(F)F)cc1F)CC2` [Example 1.311] reads 7.30 to 8.30; that for `Cc1ccc(C(C)(C)C)cc1N1CCc2nn(-c3ccccc3C(C)C)c(-c3ccc(NC(N)=O)cc3)c2C1` [Example 1.403], 6.30 to 7.30; that for `Cc1cccc(C)c1-n1nc2c(c1-c1cc(F)c(NC(N)=O)cc1F)CN(c1ncc(C(F)(F)F)cn1)CC2` [Example 1.154], no less than 8.30.
Regarding `COc1cccc(F)c1CN1CCc2nn(-c3c(C)cccc3OCC(C)C)c(-c3ccc(NC(N)=O)cc3)c2C1` [Example 1.354], the pIC50 is 7.30 to 8.30.
As for `Cc1cccc(C)c1-n1nc2c(c1-c1ccc(C(N)=O)cc1)CN(c1ccccc1C(C)C)CC2` [Example 1.470], the figure is 7.30 to 8.30.
As for `Cc1cccc(C)c1CN1CCc2nn(-c3c(C)cccc3OCC(C)C)c(-c3ccc(NC(N)=O)cc3)c2C1` [Example 1.376], the figure is 7.30 to 8.30.
The result for `Cc1ccc(C(C)(C)C)cc1N1CCc2nn(-c3c(C)cccc3C)c(-c3ccc(OC(C)C)cc3)c2C1` [Example 1.446] reads less than 6.30; that for `Cc1cccc(C)c1-n1nc2c(c1-c1cc(F)c(NC(N)=O)cc1F)CN(C(c1ccccc1)C(C)(C)O)CC2` (stereo not drawn) [Example 1.085], 7.30 to 8.30; that for `CCC(C)(C)N1CCc2nn(-c3c(C)cccc3OCC(C)C)c(-c3ccc(NC(N)=O)c(F)c3)c2C1` [Example 1.230], 7.30 to 8.30.
As for `CCc1cccc(CC)c1-n1nc2c(c1-c1ccc(NC(N)=O)cc1)CN(Cc1ccccn1)CC2` [Example 1.283], the pIC50 is less than 6.30.
In the case of `Cc1cccc(OCC(C)C)c1-n1nc2c(c1-c1ccc(NC(N)=O)cc1)CN(c1ccc(C(C)(C)C)cn1)CC2` [Example 1.370], the pIC50 is 7.30 to 8.30.
As for `COc1cc(NC(N)=O)c(F)cc1-c1c2c(nn1-c1c(C)cccc1C)CCN(c1ccc(C(F)(F)F)cc1F)C2` [Example 1.111], the figure is no less than 8.30; as for `CC(C)(c1ccccc1)N1CCc2nn(-c3ccccc3OCC(F)(F)F)c(-c3cc(F)c(NC(N)=O)cc3F)c2C1` [Example 1.136], no less than 8.30.
As for `Cc1cccc(C)c1-n1nc2c(c1-c1cc(F)c(NC(N)=O)cc1F)CN(C1(C)CCOCC1)CC2` [Example 1.078], the figure is 6.30 to 7.30; as for `Cc1cccc(OCC(C)C)c1-n1nc2c(c1-c1cc(F)c(NC(N)=O)cc1F)CN(C(C)(C)C#N)CC2` [Example 1.209], 6.30 to 7.30; as for `Cc1cccc(OCC(C)C)c1-n1nc2c(c1-c1ccc(NC(N)=O)cc1)CN(c1cccc(C(F)(F)F)c1)CC2` [Example 1.412], no less than 8.30.
The result for `CCC(C)N1CCc2nn(-c3c(C)cccc3OCC(C)C)c(-c3ccc(NC(N)=O)c(F)c3)c2C1` (stereo not drawn) [Example 1.259] reads 7.30 to 8.30; that for `CCc1cccc(CC)c1-n1nc2c(c1-c1cc(F)c(NC(N)=O)cc1F)CN(C(C)(C)C)CC2` [Example 1.204], 7.30 to 8.30; that for `CCc1cccc(CC)c1-n1nc2c(c1-c1cc(F)c(NC(N)=O)cc1F)CN(C(C)c1ccccc1C(F)(F)F)CC2` (stereo not drawn) [Example 1.208], no less than 8.30.
Consider `CCc1cccc(CC)c1-n1nc2c(c1-c1cc(F)c(NC(N)=O)cc1F)CN(C(C)(C)c1cccc(C(F)(F)F)c1)CC2` [Example 1.163], for which the pIC50 is no less than 8.30.
As for `Cc1cccc(CC(C)C)c1-n1nc2c(c1-c1ccc(NC(N)=O)cc1)CN(C(=O)OC(C)(C)C)CC2` [Example 1.415], the figure is 6.30 to 7.30; as for `CCc1cccc(CC)c1-n1nc2c(c1-c1ccc(NC(N)=O)c(F)c1)CN(CC1CCCC1)CC2` [Example 1.243], no less than 8.30; as for `Cc1cccc(OCC(C)C)c1-n1nc2c(c1-c1ccc(NC(N)=O)c(F)c1)CN(c1ncc(F)cc1F)CC2` [Example 1.249], no less than 8.30.
As for `Cc1ccc(F)cc1N1CCc2nn(-c3c(C)cccc3OCC(C)C)c(-c3ccc(NC(N)=O)cc3)c2C1` [Example 1.423], the figure is 7.30 to 8.30.
The result for `COc1cc(NC(N)=O)c(F)cc1-c1c2c(nn1-c1c(C)cccc1OCC(C)C)CCN(c1ncc(C(C)C)cc1F)C2` [Example 1.130] reads no less than 8.30; that for `Cc1ccc(C(C)(C)C)cc1N1CCc2nn(-c3c(C)cccc3CC(C)C)c(-c3ccc(NC(N)=O)cc3)c2C1` [Example 1.401], no less than 8.30.
Turning to `CCc1cccc(CC)c1-n1nc2c(c1-c1cc(F)c(NC(N)=O)cc1F)CN(C(C(=O)OC)c1ccccc1)CC2` (stereo not drawn) [Example 1.148], the negative logarithm of the IC50 (pIC50) was no less than 8.30.
With `Cc1cccc(C)c1-n1nc2c(c1-c1cc(F)c(NC(N)=O)cc1F)CN(c1ncc(Cl)cc1C(N)=O)CC2` [Example 1.101], the negative-log IC50 (pIC50) is less than 6.30.
The result for `Cc1cccc(OCC(C)C)c1-n1nc2c(c1-c1ccc(NC(N)=O)cc1)CN(C(=O)CC(C)(C)C)CC2` [Example 1.435] reads 6.30 to 7.30.
The result for `Cc1cccc(OCC(C)C)c1-n1nc2c(c1-c1ccc(NC(N)=O)cc1)CN(CC(C)(C)C)CC2(C)C` [Example 1.260] reads less than 6.30; that for `CCC(C)(C)CN1CCc2nn(-c3c(C)cccc3OCC(C)C)c(-c3ccc(NC(N)=O)cc3)c2C1` [Example 1.381], 7.30 to 8.30; that for `Cc1cccc(C)c1-n1nc2c(c1-c1ccc(NC(N)=O)cc1)CN(c1ccccc1C(C)C)CC2` [Example 1.478], 6.30 to 7.30.
As for `Cc1cccc(C)c1-n1nc2c(c1-c1ccc(NC(N)=O)cc1)CN(C(=O)OC(C)(C)C)CC2` [Example 1.417], the figure is 6.30 to 7.30; as for `Cc1cccc(OCC(C)C)c1-n1nc2c(c1-c1ccc(NC(N)=O)cc1)CN(c1ccc(C(F)(F)F)cc1)CC2` [Example 1.407], 7.30 to 8.30.
Regarding `Cc1cccc(OCC(C)C)c1-n1nc2c(c1-c1cc(F)c(NC(N)=O)cc1F)CN(C(C)(C)c1ccccc1)CC2` [Example 1.207], the pIC50 was no less than 8.30.
The result for `Cc1cccc(OCC(C)C)c1-n1nc2c(c1-c1ccc(NC(N)=O)c(F)c1)CN(C(c1ccccc1)C(F)(F)F)CC2` (stereo not drawn) [Example 1.225] reads no less than 8.30.
The result for `CCc1cccc(CC)c1-n1nc2c(c1-c1cc(F)c(NC(N)=O)cc1F)CN([C@@H](CC)c1ccccc1)CC2` [Example 1.084] reads no less than 8.30; that for `Cc1cccc(C)c1-n1nc2c(c1-c1cc(F)c(O)cc1F)CN(c1ncc(Cl)cc1Cl)CC2` [Example 1.112], no less than 8.30; that for `Cc1cccc(OCC(C)C)c1-n1nc2c(c1-c1ccc(NC(N)=O)cc1)CN(C(C)(C)c1ccccc1)CC2` [Example 1.134], 7.30 to 8.30.
The result for `Cc1cccc(OCC(C)C)c1-n1nc2c(c1-c1ccc(NC(N)=O)c(F)c1)CN(c1ncc(C(C)C)cc1F)CC2` [Example 1.218] reads no less than 8.30; that for `Cc1cc(NC(N)=O)ccc1-c1c2c(nn1-c1c(C)cccc1C)CCN(c1ccccc1C(C)C)C2` [Example 1.463], no less than 8.30; that for `Cc1cccc(OCC(C)C)c1-n1nc2c(c1-c1ccc(NC(N)=O)c(F)c1)CN(c1ncc(Cl)cc1Cl)CC2` [Example 1.252], no less than 8.30.

Source of the values: patent US11478460B2, “Diaryl substituted 6,5-fused ring compounds as C5aR inhibitors” (CHEMOCENTRYX, INC., priority 2017, dated 2022).
